Here are results for 7 compounds from US9980943B2, “Methods of treating muscular dystrophy” (BOARD OF REGENTS OF THE NEVADA SYSTEM OF HIGHER EDUCATION, …, priority 2013, dated 2018).

What all share (type): cell-based, mouse
Test [1] has as its system α7 integrin (LacZ reporter in α7βgal+/− myoblasts). Briefly: Myoblast α7+/LacZ integrin FDG assay (Burkin assay in myoblasts, 96-well). The settings on record: α7+/LacZ myoblasts, 96-well.
The test system of test [2] is α7 integrin (LacZ reporter in α7+/LacZ myotubes). Briefly: Myotube α7 integrin FDG assay (Burkin assay in myotubes, 96-well). The settings on record: myotubes.
In test [3] the test system is β-galactosidase in CMV-LacZ C2C12 myotubes. Description: CMV-LacZ secondary screen in C2C12 myotubes (β-Gal stabilizing assay). To be noted: for CMV-LACZ in Myotubes, signal relative to DMSO: C2C12 CMV-LacZ myotubes, fold relative to DMSO; for CMV-LACZ in Myotubes (β-galactosidase activity relative to DMSO): CMV-LacZ C2C12 myotubes, 96-well format. In a few lines:
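β-Gal level was the read-out, measured in a clonal C2C12 line expressing LacZ from a CMV promoter. Dose-response curves used six concentrations, 0.5 μM up to 40 μM, with duplicate points.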

`COC(=O)C(=O)C/C(=N/Nc1ncnc2ccccc12)c1ccc(Cl)cc1` [MLS001174719-01]: the “Burkin Assay in Myoblasts, value relative to DMSO” value in test [1] (0.5 uM) worked out at 1.053; in test [1] (1 uM), 1.048; in test [1] (5 uM) it was 1.013; in test [1] (10 uM) it was 0.848; in test [1] (20 uM), 0.7524; in test [1] (40 uM), 0.5265. In addition, the “Burkin Assay in Myotubes (signal relative to DMSO)” value is 1.135 in test [2] (0.5 uM); 1.001 in test [2] (1 uM); 1.128 in test [2] (5 uM); 1.034 in test [2] (10 uM); 0.9771 in test [2] (20 uM); 0.7374 in test [2] (40 uM). In addition, the “CMV-LACZ in Myotubes, signal relative to DMSO” value came to 0.8551 in test [3] (5 uM), 0.832 in test [3] (10 uM), 0.9254 in test [3] (20 uM) and 1.108 in test [3] (40 uM).
Turning to `CCOCCCN1C(=O)CN(C2CCCCCC2)C(=O)C1c1ccc(OC)cc1` (stereo not shown) [MLS000046123-01], the “Burkin Assay in Myoblasts, value relative to DMSO” value in test [1] (0.5 uM) was found to be 1.049; in test [1] (1 uM), 0.9808; in test [1] (5 uM) it was 0.9565; in test [1] (10 uM) it was 1.007; in test [1] (20 uM), 1.002; in test [1] (40 uM), 0.9894. Moreover, the “Burkin Assay in Myotubes (signal relative to DMSO)” value is given as 0.9802 in test [2] (0.5 uM); 0.9389 in test [2] (1 uM); 0.8905 in test [2] (5 uM); 0.865 in test [2] (10 uM); 0.9268 in test [2] (20 uM); 0.9203 in test [2] (40 uM). Also, the “CMV-LACZ in Myotubes, signal relative to DMSO” value in test [3] (5 uM) is recorded as 0.9124; in test [3] (10 uM) it was 1.084; in test [3] (20 uM), 1.145; in test [3] (40 uM), 1.076.
With `Cc1ccccc1OCC(=O)Nc1nnc(-c2ccco2)s1` [MLS000333610-01], the “Burkin Assay in Myoblasts, signal relative to DMSO” value in test [1] (0.5 uM) was found to be 0.8664; in test [1] (1 uM) it was 0.9253; in test [1] (5 uM), 1.048; in test [1] (10 uM), 0.9188; in test [1] (20 uM), 0.7975; in test [1] (40 uM) it was 0.7794. For the same compound, the “Burkin Assay in Myotubes, α7 integrin LacZ reporter signal relative to DMSO” value came out at 0.986 in test [2] (0.5 uM); 1.039 in test [2] (1 uM); 1.003 in test [2] (5 uM); 0.9932 in test [2] (10 uM); 0.8742 in test [2] (20 uM); 0.9096 in test [2] (40 uM). The “CMV-LACZ in Myotubes, signal relative to DMSO” value in test [3] (5 uM) is 0.832; in test [3] (10 uM), 0.7867; in test [3] (20 uM), 0.9429; in test [3] (40 uM), 0.9948.
`N#Cc1ccccc1S(=O)(=O)N1CCN(C(=O)C2CCCCC2)CC1` [MLS002251986-01]: the “Burkin Assay in Myoblasts, signal relative to DMSO” value in test [1] (0.5 uM) was determined as 1.046; in test [1] (1 uM), 0.9231; in test [1] (5 uM), 0.9512; in test [1] (10 uM), 0.8667; in test [1] (20 uM), 0.9793; in test [1] (40 uM), 0.9184. In addition, the “Burkin Assay in Myotubes, α7 integrin LacZ reporter signal relative to DMSO” value came out at 1.121 in test [2] (0.5 uM); 0.9515 in test [2] (1 uM); 1.073 in test [2] (5 uM); 1.088 in test [2] (10 uM); 0.9882 in test [2] (20 uM); 0.9112 in test [2] (40 uM). For the same compound, the “CMV-LACZ in Myotubes, signal relative to DMSO” value in test [3] (5 uM) is reported as 0.9831; in test [3] (10 uM), 0.9609; in test [3] (20 uM), 0.8238; in test [3] (40 uM) it was 0.9776.
For the compound `COc1ccc(Cl)cc1NC(=O)CC(=O)Nc1cc(Cl)ccc1OC` [MLS001166704-01], the “Burkin Assay in Myoblasts, signal relative to DMSO” value in test [1] (0.5 uM) was determined as 1.109; in test [1] (1 uM), 1.165; in test [1] (5 uM) it was 0.8499; in test [1] (10 uM), 0.7652; in test [1] (20 uM) it was 0.5747; in test [1] (40 uM), 0.4394. Besides, the “Burkin Assay in Myotubes, α7 integrin LacZ reporter signal relative to DMSO” value in test [2] (0.5 uM) stood at 1.166; in test [2] (1 uM) it was 1.268; in test [2] (5 uM) it was 0.8936; in test [2] (10 uM) it was 1.065; in test [2] (20 uM), 0.7918; in test [2] (40 uM), 0.81. Moreover, the “CMV-LACZ in Myotubes, signal relative to DMSO” value is given as 1.088 in test [3] (5 uM), 1.1553 in test [3] (10 uM), 1.4595 in test [3] (20 uM) and 1.0685 in test [3] (40 uM).
Regarding `O=C(c1cccs1)N(Cc1ccco1)c1nc(-c2ccc(F)cc2)cs1` [MLS000122749-01], the “Burkin Assay in Myoblasts, signal relative to DMSO” value in test [1] (0.5 uM) is reported as 1.113; in test [1] (1 uM), 1.04; in test [1] (5 uM) it was 1.026; in test [1] (10 uM), 1.116; in test [1] (20 uM) it was 1.185; in test [1] (40 uM), 0.948. For the same compound, the “Burkin Assay in Myotubes, α7 integrin LacZ reporter signal relative to DMSO” value came out at 1.042 in test [2] (0.5 uM); 0.9982 in test [2] (1 uM); 1.096 in test [2] (5 uM); 1.131 in test [2] (10 uM); 1.256 in test [2] (20 uM); 0.9306 in test [2] (40 uM). Moreover, the “CMV-LACZ in Myotubes, signal relative to DMSO” value is on record as 1.022 in test [3] (5 uM), 1.063 in test [3] (10 uM), 0.808 in test [3] (20 uM) and 1.0025 in test [3] (40 uM).
As for `COCCn1c(=N)c(S(=O)(=O)c2ccc(Br)cc2)cc2c(=O)n3ccccc3nc21` [MLS001141113-01], the fold induction at 0.5 µM in test [1] (Mus musculus, Myoblast, 48 h, 0.5 uM, read-out: Burkin Assay in Myoblasts, value relative to DMSO) was found to be 1.23; in test [2] (Mus musculus, Myotube, 0.5 uM, read-out: Burkin Assay in Myotubes (signal relative to DMSO)), 1.04. Besides, the fold induction at 1 µM in test [1] (Mus musculus, Myoblast, 48 h, 1 uM, read-out: Burkin Assay in Myoblasts, value relative to DMSO) was determined as 1.06; in test [2] (Mus musculus, Myotube, 1 uM, read-out: Burkin Assay in Myotubes (signal relative to DMSO)), 0.854. Further, the fold induction at 5 µM worked out at 1.08 in test [1] (Mus musculus, Myoblast, 48 h, 5 uM, read-out: Burkin Assay in Myoblasts, value relative to DMSO) and 1.05 in test [2] (Mus musculus, Myotube, 5 uM, read-out: Burkin Assay in Myotubes (signal relative to DMSO)). For the same compound, the fold induction at 10 µM worked out at 1.07 in test [1] (Mus musculus, Myoblast, 48 h, 10 uM, read-out: Burkin Assay in Myoblasts, value relative to DMSO) and 0.929 in test [2] (Mus musculus, Myotube, 10 uM, read-out: Burkin Assay in Myotubes (signal relative to DMSO)). Also, the fold induction at 20 µM in test [1] (Mus musculus, Myoblast, 48 h, 20 uM, read-out: Burkin Assay in Myoblasts, value relative to DMSO) turned out to be 0.915; in test [2] (Mus musculus, Myotube, 20 uM, read-out: Burkin Assay in Myotubes (signal relative to DMSO)), 0.887. Besides, the fold induction at 40 µM was 0.56 in test [1] (Mus musculus, Myoblast, 48 h, 40 uM, read-out: Burkin Assay in Myoblasts, value relative to DMSO) and 0.812 in test [2] (Mus musculus, Myotube, 40 uM, read-out: Burkin Assay in Myotubes (signal relative to DMSO)). The “CMV-LACZ in Myotubes (β-galactosidase activity relative to DMSO)” value is 1.134 in test [3] (5 uM), 1.383 in test [3] (10 uM), 0.9823 in test [3] (20 uM) and 1.913 in test [3] (40 uM).
